Source: patent US20260125727A1, “METHOD FOR PRODUCING A COMPOSITION, A COMPOSITION COMPRISING AN OLIGOSACCHARIDE OBTAINED THEREBY, AND USES THEREOF” (MEIJI CO., LTD., priority 2022, published 2026)

Experiments:
Parabacteroides bacteria = assay: Promotion of growth of Parabacteroides bacteria in the intestinal microbiota; conditions: studies of the inventors, no method given
[1] = Evaluation of thermal stability of aqueous solution (residual ratio of galactosylkojibiose after heat treatment, HPLC); format: physicochemical; conditions: for change of galactosylkojibiose HPLC peak after heat treatment: 120° C. for 20 minutes, 12 wt % solution in buffer
Description: Buffers having various pH values (100 mM citrate-phosphate buffer for pH 3 to 6 and 100 mM phosphate buffer for pH 6 to 8) were used to dissolve the purified and fractionated galactosylkojibiose obtained in Example 3 so that the resulting solutions should have 12° Bx (12 wt %). The solutions were subjected to a heat treatment at 60° C., 80° C., 100° C., and 120° C. for 20 minutes by using an autoclave, and then residual ratio of galactosylkojibiose was evaluated.
The residual ratio was calculated from the results obtained by using HPLC method performed under the following conditions. • Column: SUPELCO apHera™ NH2 HPLC Column • Mobile phase: 68% acetonitrile • Column temperature: 35° C. • Flow rate: 1.0 mL/min • Detection: RI

Bifidobacterium bacteria = assay: Promotion of growth of Bifidobacterium bacteria in the intestinal microbiota; conditions: studies of the inventors, no method given

decay of galactosylkojibiose after heat treatment ([1]; 60° C. for 20 minutes, any pH value (pH 3 to 8))	change of galactosylkojibiose HPLC peak after heat treatment ([1]; pH 6 or lower)	change of galactosylkojibiose HPLC peak after heat treatment ([1]; pH 7 or higher, new peak at around 12.1 minutes)	Compound	growth of Parabacteroides bacteria in the intestinal microbiota (Parabacteroides bacteria)	growth of Bifidobacterium bacteria in the intestinal microbiota (Bifidobacterium bacteria)
not observed	no significant change	decay of the chromatographic peak	OCC1O[C@H](OC2C(O)[C@H](O[C@@H]3OC(CO)[C@H](O)C(O)C3O)C(CO)O[C@H]2O)C(O)C(O)[C@@H]1O (stereo partly drawn) [galactosylkojibiose, α-D-glucopyranosyl-(1→2)-[β-D-galactopyranosyl-(1→4)-]D-glucopyranoside]	promote the growth	promote the growth
			OCC1O[C@H](OC2[C@H](O)OC(CO)[C@@H](O)[C@@H]2O)C(O)[C@@H](O)[C@@H]1O (stereo partly shown) [kojibiose]	promote the growth	promote the growth
